Patent publication US20250171438A1 (Agios Pharmaceuticals, Inc., priority 2022, published 2025)

Target: T1, human PAH with the R408W mutation (Homo sapiens, UniProt P00439, R408W)
T1 construct: expressed in transfected cells
T1 sequence (P00439 1-452 R408W): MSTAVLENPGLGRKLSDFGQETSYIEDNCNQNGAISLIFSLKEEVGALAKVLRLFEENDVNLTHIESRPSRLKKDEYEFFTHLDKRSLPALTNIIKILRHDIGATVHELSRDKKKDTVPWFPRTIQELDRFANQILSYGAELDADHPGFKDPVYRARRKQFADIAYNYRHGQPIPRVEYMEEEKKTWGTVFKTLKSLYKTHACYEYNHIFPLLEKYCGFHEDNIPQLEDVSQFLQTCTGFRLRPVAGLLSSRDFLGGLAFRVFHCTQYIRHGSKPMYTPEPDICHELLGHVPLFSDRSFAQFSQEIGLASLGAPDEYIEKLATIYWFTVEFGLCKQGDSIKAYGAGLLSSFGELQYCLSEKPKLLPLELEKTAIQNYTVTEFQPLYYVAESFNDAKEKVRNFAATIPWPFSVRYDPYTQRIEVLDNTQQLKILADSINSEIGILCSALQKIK
Experiment: Cell Based Phenylalanine Flux Assay
Settings: A375 cells expressing human R408W PAH; 24 hrs compound incubation; 13C-Tyrosine by LC-MS; average where tested multiple times; read-out: AC50

| AC50 [nM] | SMILES |
| --- | --- |
| < 500 | Cc1ncoc1C(=O)N1CCc2[nH]cnc2[C@H]1c1nc2ccccc2s1 [Example 1161] |
| 1000 to 5000 | Cc1ncoc1C(=O)N1CCc2[nH]cnc2[C@@H]1c1nc2ccccc2s1 [Example 1162, (R)-(4-(benzo[d]thiazol-2-yl)-6,7-dihydro-1H-imidazo[4,5-c]pyridin-5(4H)-yl)(4-methyloxazol-5-yl)methanone] |
| < 500 | Cc1nc(C)c(C(=O)N2CCc3[nH]cnc3[C@H]2c2nc3ccccc3s2)o1 [Example 1163] |
| > 5000 | Cc1nc(C)c(C(=O)N2CCc3[nH]cnc3[C@@H]2c2nc3ccccc3s2)o1 [Example 1164, (R)-(4-(benzo[d]thiazol-2-yl)-6,7-dihydro-1H-imidazo[4,5-c]pyridin-5(4H)-yl)(2,4-dimethyloxazol-5-yl)methanone] |
| < 500 | Cc1nn2ccccc2c1C(=O)N1CCc2[nH]cnc2[C@H]1c1nc2ccccc2s1 [Example 1165] |
| 500 to 1000 | Cc1nn2ccccc2c1C(=O)N1CCc2[nH]cnc2[C@@H]1c1nc2ccccc2s1 [Example 1166, (R)-(4-(benzo[d]thiazol-2-yl)-6,7-dihydro-1H-imidazo[4,5-c]pyridin-5(4H)-yl)(2-methylpyrazolo[1,5-a]pyridin-3-yl)methanone] |
| 500 to 1000 | O=C(c1cnn2ccc(Cl)cc12)N1CCc2[nH]cnc2[C@H]1c1nc2cc(F)ccc2s1 [Example 1167] |
| 1000 to 5000 | O=C(c1cnn2ccc(Cl)cc12)N1CCc2[nH]cnc2[C@@H]1c1nc2cc(F)ccc2s1 [Example 1168, (R)-(5-chloropyrazolo[1,5-a]pyridin-3-yl)(4-(5-fluorobenzo[d]thiazol-2-yl)-6,7-dihydro-1H-imidazo[4,5-c]pyridin-5(4H)-yl)methanone] |
| 1000 to 5000 | O=C(c1cnn2ccc(F)cc12)N1CCc2[nH]cnc2[C@@H]1c1nc2c(F)cccc2s1 [Example 1169, (R)-(4-(4-fluorobenzo[d]thiazol-2-yl)-6,7-dihydro-1H-imidazo[4,5-c]pyridin-5(4H)-yl)(5-fluoropyrazolo[1,5-a]pyridin-3-yl)methanone] |
| 500 to 1000 | O=C(c1cnn2ccc(F)cc12)N1CCc2[nH]cnc2[C@H]1c1nc2c(F)cccc2s1 [Example 1170, (S)-(4-(4-fluorobenzo[d]thiazol-2-yl)-6,7-dihydro-1H-imidazo[4,5-c]pyridin-5(4H)-yl)(5-fluoropyrazolo[1,5-a]pyridin-3-yl)methanone] |
| < 500 | O=C(c1cnn2ccc(Br)cc12)N1CCc2[nH]cnc2[C@H]1c1nc2c(F)cccc2s1 [Example 1171] |
| 500 to 1000 | O=C(c1cnn2ccc(Br)cc12)N1CCc2[nH]cnc2[C@@H]1c1nc2c(F)cccc2s1 [Example 1172, (R)-(5-bromopyrazolo[1,5-a]pyridin-3-yl)(4-(4-fluorobenzo[d]thiazol-2-yl)-6,7-dihydro-1H-imidazo[4,5-c]pyridin-5(4H)-yl)methanone] |
| 500 to 1000 | Cc1ccc2c(C(=O)N3CCc4[nH]cnc4[C@H]3c3nc4c(F)cccc4s3)cnn2c1 [Example 1173, (S)-(4-(4-fluorobenzo[d]thiazol-2-yl)-6,7-dihydro-1H-imidazo[4,5-c]pyridin-5(4H)-yl)(6-methylpyrazolo[1,5-a]pyridin-3-yl)methanone] |
| 1000 to 5000 | Cc1ccc2c(C(=O)N3CCc4[nH]cnc4[C@@H]3c3nc4c(F)cccc4s3)cnn2c1 [Example 1174, (R)-(4-(4-fluorobenzo[d]thiazol-2-yl)-6,7-dihydro-1H-imidazo[4,5-c]pyridin-5(4H)-yl)(6-methylpyrazolo[1,5-a]pyridin-3-yl)methanone] |
| 1000 to 5000 | O=C(Cc1nccs1)N1CCc2[nH]cnc2[C@@H]1c1nc2cccc(Br)c2s1 [Example 1175, (R)-1-(4-(7-bromobenzo[d]thiazol-2-yl)-6,7-dihydro-1H-imidazo[4,5-c]pyridin-5(4H)-yl)-2-(thiazol-2-yl)ethanone] |
| 500 to 1000 | O=C(Cc1nccs1)N1CCc2[nH]cnc2[C@H]1c1nc2cccc(Br)c2s1 [Example 1176, (S)-1-(4-(7-bromobenzo[d]thiazol-2-yl)-6,7-dihydro-1H-imidazo[4,5-c]pyridin-5(4H)-yl)-2-(thiazol-2-yl)ethanone] |

| AC50 [nM] | SMILES |
| --- | --- |
| 500 to 1000 | Cc1nc(C)c(C(=O)N2CCc3[nH]cnc3[C@H]2c2nc3ccccc3s2)s1 [Example 1177] |
| > 5000 | Cc1nc(C)c(C(=O)N2CCc3[nH]cnc3[C@@H]2c2nc3ccccc3s2)s1 [Example 1178, (R)-(4-(benzo[d]thiazol-2-yl)-6,7-dihydro-1H-imidazo[4,5-c]pyridin-5(4H)-yl)(2,4-dimethylthiazol-5-yl)methanone] |
| < 500 | O=C(c1cnc(C2CC2)s1)N1CCc2[nH]cnc2[C@H]1c1nc2ccccc2s1 [Example 1179] |
| 1000 to 5000 | O=C(c1cnc(C2CC2)s1)N1CCc2[nH]cnc2[C@@H]1c1nc2ccccc2s1 [Example 1180, (R)-(4-(benzo[d]thiazol-2-yl)-6,7-dihydro-1H-imidazo[4,5-c]pyridin-5(4H)-yl)(2-cyclopropylthiazol-5-yl)methanone] |
| 500 to 1000 | O=C(c1cnc(C(F)(F)F)s1)N1CCc2[nH]cnc2[C@H]1c1nc2ccccc2s1 [Example 1181] |
| 1000 to 5000 | O=C(c1cnc(C(F)(F)F)s1)N1CCc2[nH]cnc2[C@@H]1c1nc2ccccc2s1 [Example 1182, (R)-(4-(benzo[d]thiazol-2-yl)-6,7-dihydro-1H-imidazo[4,5-c]pyridin-5(4H)-yl)(2-(trifluoromethyl)thiazol-5-yl)methanone] |
| < 500 | O=C(c1cnc(NC2CC2)s1)N1CCc2[nH]cnc2[C@H]1c1nc2ccccc2s1 [Example 1183] |
| 1000 to 5000 | O=C(c1cnc(NC2CC2)s1)N1CCc2[nH]cnc2[C@@H]1c1nc2ccccc2s1 [Example 1184, (R)-(4-(benzo[d]thiazol-2-yl)-6,7-dihydro-1H-imidazo[4,5-c]pyridin-5(4H)-yl)(2-(cyclopropylamino)thiazol-5-yl)methanone] |
| 500 to 1000 | COCc1ncc(C(=O)N2CCc3[nH]cnc3[C@H]2c2nc3ccccc3s2)s1 [Example 1185] |
| 1000 to 5000 | COCc1ncc(C(=O)N2CCc3[nH]cnc3[C@@H]2c2nc3ccccc3s2)s1 [Example 1186, (R)-(4-(benzo[d]thiazol-2-yl)-6,7-dihydro-1H-imidazo[4,5-c]pyridin-5(4H)-yl)(2-(methoxymethyl)thiazol-5-yl)methanone] |
| 500 to 1000 | O=C(c1cnc(C2CC2)o1)N1CCc2[nH]cnc2[C@H]1c1nc2ccccc2s1 [Example 1187] |
| 1000 to 5000 | O=C(c1cnc(C2CC2)o1)N1CCc2[nH]cnc2[C@@H]1c1nc2ccccc2s1 [Example 1188, (R)-(4-(benzo[d]thiazol-2-yl)-6,7-dihydro-1H-imidazo[4,5-c]pyridin-5(4H)-yl)(2-cyclopropyloxazol-5-yl)methanone] |
| 1000 to 5000 | O=C(c1ncc(-c2ccccc2)s1)N1CCc2[nH]cnc2[C@H]1c1nc2ccccc2s1 [Example 1189] |
| > 5000 | O=C(c1ncc(-c2ccccc2)s1)N1CCc2[nH]cnc2[C@@H]1c1nc2ccccc2s1 [Example 1190, (R)-(4-(benzo[d]thiazol-2-yl)-6,7-dihydro-1H-imidazo[4,5-c]pyridin-5(4H)-yl)(5-phenylthiazol-2-yl)methanone] |
| 500 to 1000 | O=C(c1cnn2cc(C3CC3)ccc12)N1CCc2[nH]cnc2[C@H]1c1nc2ccccc2s1 [Example 1191] |
